Key:
RIF-1 tumors = experiment: RIF-1 murine tumor growth delay after intratumoral injection (days to 4× tumor volume; T/C); format: in vivo, murine (C3H mice); design: key to Treated (Table 7 column): days for tumors to reach 4x baseline volume
Experimental: When the introduced tumors reached 100 mm^3, the mice were ready for testing. During the course of the experiments, the treated and control tumors were measured three times per week by Vernier calipers and the tumor volumes were calculated using the following formula: […]
where D1 -D3 are tumor diameters in millimeters. The number of days for tumors to reach four times (4×) their baseline volume was used as a parameter of treatment effectiveness. Therefore, a longer delay in tumor growth meant greater antitumor efficacy.

C3H mice = experiment: Lethal toxicity (deaths) after intratumoral injection in RIF-1 tumor-bearing C3H mice; format: in vivo
Experimental: For each of the following experiments, transplantable murine fibrosarcoma RIF-1 tumors were grown intradermally in the flank of 3-7 month old female C3H mice (2×10^5 cells were injected). When the introduced tumors reached 100 mm^3, the mice were ready for testing. During the course of the experiments, the treated and control tumors were measured three times per week by Vernier calipers and the tumor volumes were calculated using the following formula: […]

ovarian cancer cells = settings: in vitro; cells first exposed to digitonin; cited from earlier work
[1] = Table 6, agent 40 mg/kg (BFA: DMSO as solvent), saponin 10 mg/kg 1 hr prior where combined
[2] = Table 7, dose printed 10, 4 mg/kg (saponin, vinblastine)

C=C1O[C@@](CO)(n2cnc3c(N)ncnc32)[C@H](O)[C@@H]1O [Decoyinine]
T/C (ratio of tumor growth delay of treated tumors to untreated controls) (RIF-1 tumors; [1]): 1.0

Neomycin sulfate [Neomycin sulfate (NS)]
T/C (ratio of tumor growth delay of treated tumors to untreated controls) (RIF-1 tumors; [1]): 0.7

Cc1ccc(C(=O)Nc2ccc(S(=O)(=O)O)c3cc(S(=O)(=O)O)cc(S(=O)(=O)O)c23)cc1NC(=O)c1cccc(NC(=O)Nc2cccc(C(=O)Nc3cc(C(=O)Nc4ccc(S(=O)(=O)O)c5cc(S(=O)(=O)O)cc(S(=O)(=O)O)c45)ccc3C)c2)c1 [Suramin]
T/C (ratio of tumor growth delay of treated tumors to untreated controls) (RIF-1 tumors; Table 6, agent 20 mg/kg, saponin 10 mg/kg 1 hr prior where combined): 1.0

C[C@H]1CCC/C=C/[C@@H]2C[C@H](O)C[C@H]2[C@H](O)/C=C/C(=O)O1 [Brefeldin A(BFA), Brefeldin A]
T/C (ratio of tumor growth delay of treated tumors to untreated controls) (RIF-1 tumors; [1]): 2.6

CC[C@]1(O)C[C@@H]2CN(CCc3c([nH]c4ccccc34)[C@@](C(=O)OC)(c3cc4c(cc3OC)N(C)[C@H]3[C@@](O)(C(=O)OC)[C@H](OC(C)=O)[C@]5(CC)C=CCN6CC[C@]43[C@@H]65)C2)C1 [Vinblastine(VLB), Vinblastine]
Treated (Table 7 column) (RIF-1 tumors; [2]): 14.1 ± 1.57
Efficacy of vinblastine, in words (RIF-1 tumors; in conjunction with saponin (Table 7)): greatly enhances the efficacy of the vinblastine
Efficacy of vinblastine, in words (RIF-1 tumors; with saponin and collagen gel matrix (Table 7)): further enhances the efficacy of vinblastine
Toxicity Deaths/# mice (C3H mice; [2]): 0/5
Lethal toxic side effects, in words (C3H mice; vinblastine with saponin and collagen gel matrix (Table 7)): decreasing the observed lethal toxic side effects

O=c1c(-c2ccc(O)cc2)coc2cc(O)cc(O)c12 [Genistein]
T/C (ratio of tumor growth delay of treated tumors to untreated controls) (RIF-1 tumors; Table 6, agent 80 mg/kg, saponin 10 mg/kg 1 hr prior where combined): 1.1

C[C@H]1O[C@@H](O[C@H]2[C@@H](O)C[C@H](O[C@H]3[C@@H](O)C[C@H](O[C@H]4CC[C@@]5(C)[C@H](CC[C@@H]6[C@@H]5CC[C@]5(C)[C@@H](C7=CC(=O)OC7)CC[C@]65O)C4)O[C@@H]3C)O[C@@H]2C)C[C@H](O)[C@@H]1O [Digitoxin]
T/C (ratio of tumor growth delay of treated tumors to untreated controls) (RIF-1 tumors; Table 5, permeant 40 mg/kg, no TNF): 0.99

N#C/C(=C\c1ccc(O)c(O)c1)C(N)=S [Tyrphostin 47]
T/C (ratio of tumor growth delay of treated tumors to untreated controls) (RIF-1 tumors; Table 6, agent 60 mg/kg, EtOH as solvent, saponin 10 mg/kg 1 hr prior where combined): 1.1

N.N.[Cl][Pt][Cl] [cisplatin]
Uptake of cisplatin by ovarian cancer cells (ovarian cancer cells): enhanced uptake

Lysolecithin(type 1)
T/C (ratio of tumor growth delay of treated tumors to untreated controls) (RIF-1 tumors; Table 5, permeant 10 mg/kg, no TNF): 1.27

Reference: patent publication US5874402A, “Use of cell membrane permeants in the treatment of cellular proliferative diseases” (Matrix Pharmaceutical, Inc., priority 1997, dated 1999)
